From US20130302282A1, “Inhibitors of Hepatitis C Virus” (priority 2010, published 2013)
Read-outs that look alike come from different tables or passages of the source.

Legend:
HCV NS5B C316Y mutant = target: T1, HCV NS5B C316Y mutant (Hepatitis C virus genotype 1b, UniProt Q9WMX2, C2735Y); assay: Activity against HCV NS5B C316Y mutant; format: cell-based; details: for Inhibition of HCV N55B C316Y mutant: class symbol
T1 construct: HCV NS5B C316Y or S365A mutant as indicated; expressed in transfected cells
T1 sequence (Q9WMX2 2420-3010 C2735Y): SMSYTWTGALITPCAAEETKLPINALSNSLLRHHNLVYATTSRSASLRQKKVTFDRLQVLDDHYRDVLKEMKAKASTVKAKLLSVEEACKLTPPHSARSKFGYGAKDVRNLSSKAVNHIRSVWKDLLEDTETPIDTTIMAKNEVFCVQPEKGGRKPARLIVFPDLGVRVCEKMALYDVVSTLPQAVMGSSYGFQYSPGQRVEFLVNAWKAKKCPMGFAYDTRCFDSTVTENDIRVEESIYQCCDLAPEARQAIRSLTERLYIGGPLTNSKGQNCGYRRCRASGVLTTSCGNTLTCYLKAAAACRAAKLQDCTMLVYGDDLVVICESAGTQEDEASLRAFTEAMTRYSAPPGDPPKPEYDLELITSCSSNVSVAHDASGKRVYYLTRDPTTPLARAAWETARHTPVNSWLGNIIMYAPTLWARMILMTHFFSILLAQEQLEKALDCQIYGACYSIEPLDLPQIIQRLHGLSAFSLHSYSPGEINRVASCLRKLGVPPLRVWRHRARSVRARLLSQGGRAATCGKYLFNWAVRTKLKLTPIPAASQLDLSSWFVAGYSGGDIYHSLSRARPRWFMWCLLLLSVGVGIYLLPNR
Procedure: (§1) The biological activity against HCV 1b, 1a, or 2a is indicated as being *, **, ***, or ****, which corresponds to EC50 ranges of EC50>1000 nM, 100 nM<EC50≦1000 nM, 10 nM<EC50≦100 nM, or EC50≦10 nM, respectively. The biological activity against HCV NS5B C316Y or S365A mutant is indicated as being […], which corresponds to EC50 ranges of EC50>1000 nM, 200 nM<EC50≦1000 nM, […], respectively.

[1] = tested on: 1b_Huh-Luc/Neo-ET cell line (bicistronic genotype 1b replicon in Huh 7 cells); assay: HCV 1b replicon assay, luciferase readout; format: cell-based, HCV genotype 1b; details: Hepatitis C virus
Summary of the method: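 Huh 7 cells persistently carrying a bicistronic genotype 1b luciferase replicon, treated with compound in triplicate the day after plating and incubated 72 h. Luciferase activity measured by Bright-Glo and expressed as percent of untreated control; EC50 from four-parameter fit, repeated several times.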

HCV NS5B S365A mutant = target: T2, HCV NS5B S365A mutant (Hepatitis C virus genotype 1b, UniProt Q9WMX2, S2784A); assay: Activity against HCV NS5B S365A mutant; format: cell-based; details: for Inhibition of HCV NS5B S3865A mutant: class symbol
T2 construct: HCV NS5B C316Y or S365A mutant as indicated; expressed in transfected cells
T2 sequence (Q9WMX2 2420-3010 S2784A): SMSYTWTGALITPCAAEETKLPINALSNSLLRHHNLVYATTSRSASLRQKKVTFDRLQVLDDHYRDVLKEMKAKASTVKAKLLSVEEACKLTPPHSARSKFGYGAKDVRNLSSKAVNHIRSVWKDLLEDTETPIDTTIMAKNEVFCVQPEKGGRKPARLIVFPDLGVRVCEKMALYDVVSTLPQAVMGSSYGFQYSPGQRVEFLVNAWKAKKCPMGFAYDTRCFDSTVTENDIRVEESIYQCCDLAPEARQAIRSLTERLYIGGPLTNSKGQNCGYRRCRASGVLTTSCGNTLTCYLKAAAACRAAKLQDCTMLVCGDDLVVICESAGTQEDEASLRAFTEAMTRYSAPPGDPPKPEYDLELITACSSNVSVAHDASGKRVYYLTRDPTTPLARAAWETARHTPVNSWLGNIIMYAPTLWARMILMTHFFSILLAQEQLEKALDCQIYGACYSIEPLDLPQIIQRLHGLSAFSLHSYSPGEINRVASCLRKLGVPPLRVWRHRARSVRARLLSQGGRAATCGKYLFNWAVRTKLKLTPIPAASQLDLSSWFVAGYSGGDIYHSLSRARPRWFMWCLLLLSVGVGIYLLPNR
Procedure: as §1

HCV 2a = HCV 2a replicon assay; format: cell-based; details: Hepatitis C virus; class symbol; cell marked (HCV genotype 2a replicon); read-out: Inhibition of HCV genotype 2a replicon
Procedure: Compounds of the invention can inhibit multiple genotypes of HCV selected but not limited to 1a, 1h, 2a, 3a, and 4a. The EC50s are measured in the corresponding replicon assays that are similar to HCV 1b replicon assay as described above.
as §1

[2] = Huh-7, 1b_Huh-Luc/Neo-ET cell line, read-out: EC50, half-maximal inhibition of HCV 1b replication
[3] = Huh-7, numeric value, HCV genotype 1b replicon, read-out: Inhibition of HCV genotype 1b replicon (EC50)
[4] = Huh-7, class symbol, HCV genotype 1b replicon, read-out: Inhibition of HCV genotype 1b replicon

| Structure (SMILES) | Inhibition of HCV N55B C316Y mutant (HCV NS5B C316Y mutant) | EC50 [1, 2] [nM] | EC50 [1, 4] [nM] | EC50 (HCV 2a) [nM] | other results |
| --- | --- | --- | --- | --- | --- |
| CNC(=O)c1c(-c2ccc(Oc3ccc(F)cc3)cc2)oc2cc3c(cc12)[C@H](C)CCCN3S(C)(=O)=O (single isomer, unassigned) [Compound B85] | ††† | ≤ 10 | – | – | EC50 [1, 3]: 3 nM; Inhibition of HCV NS5B S3865A mutant (HCV NS5B S365A mutant): ††† |
| CNC(=O)c1c(-c2ccc(F)cc2)oc2cc3c(cc12)[C@@H]1C[C@@H]1CCN3S(C)(=O)=O (single isomer, unassigned) [Compound B132] | ††† | ≤ 10 | < 10 | – | Inhibition of HCV NS5B S3865A mutant (HCV NS5B S365A mutant): ††† |
| CNC(=O)c1c(-c2ccc(Oc3ccc(F)cc3)cc2)oc2cc3c(cc12)[C@H](C)n1nncc1CN3S(C)(=O)=O (single isomer, unassigned) [Compound B163] | ††† | ≤ 10 | < 10 | – | Inhibition of HCV NS5B S3865A mutant (HCV NS5B S365A mutant): ††† |
| CNC(=O)c1c(-c2ccc(F)cc2)oc2cc3c(cc12)[C@H](C)n1nncc1CN3S(C)(=O)=O (single isomer, unassigned) [Compound B169] | ††† | ≤ 10 | < 10 | – | Inhibition of HCV NS5B S3865A mutant (HCV NS5B S365A mutant): ††† |
| CNC(=O)c1c(-c2ccc(Oc3ccc(F)cc3)cc2)oc2cc3c(cc12)[C@H](C)OC(C)(C)CN3S(C)(=O)=O (single isomer, unassigned) [Compound B176] | – | 10 to 100 | – | – | EC50 (HCV NS5B C316Y mutant): 200 to 1000 nM; EC50 [1, 3]: 13.6 nM; EC50 (HCV NS5B S365A mutant): 200 to 1000 nM |
| CNC(=O)c1c(-c2ccc(F)cc2)oc2cc3c(cc12)[C@H](C)N(C)C(=O)CN3S(C)(=O)=O (single isomer, unassigned) [Compound B179] | ††† | 10 to 100 | 10 to 100 | – | EC50 (HCV NS5B S365A mutant): 200 to 1000 nM |
| CNC(=O)c1c(-c2ccc(F)cc2)oc2cc3c(cc12)[C@H](C)OC(C)(C)CN3S(C)(=O)=O (single isomer, unassigned) [Compound B184] | – | 10 to 100 | – | – | EC50 (HCV NS5B C316Y mutant): > 1000 nM; EC50 [1, 3]: 16.5 nM; EC50 (HCV NS5B S365A mutant): 200 to 1000 nM |
| CNC(=O)c1c(-c2ccc(Oc3ccc(F)cc3)cc2)oc2cc3c(cc12)[C@H](C)OC1(CC1)CN3S(C)(=O)=O (single isomer, unassigned) [Compound B187] | – | ≤ 10 | < 10 | – | EC50 (HCV NS5B C316Y mutant): > 1000 nM; EC50 (HCV NS5B S365A mutant): > 1000 nM |
| CNC(=O)c1c(-c2ccc(F)cc2)oc2cc3c(cc12)[C@H](C)OC1(CC1)CN3S(C)(=O)=O (single isomer, unassigned) [Compound B193] | – | 10 to 100 | 10 to 100 | – | EC50 (HCV NS5B C316Y mutant): 200 to 1000 nM; EC50 (HCV NS5B S365A mutant): 200 to 1000 nM |
| CNC(=O)c1c(-c2ccc(F)cc2)oc2cc3c(cc12)[C@H](C)NC(=O)CN3S(C)(=O)=O (single isomer, unassigned) [Compound B208] | ††† | ≤ 10 | < 10 | – | Inhibition of HCV NS5B S3865A mutant (HCV NS5B S365A mutant): ††† |
| CNC(=O)c1c(-c2ccc(F)cc2)oc2cc3c(cc12)CCCN3S(C)(=O)=O [Compound B1] | ††† (EC50 ≦ 200 nM) | – | 100 to 1000 | – | Inhibition of HCV NS5B S3865A mutant (HCV NS5B S365A mutant): ††† (EC50 ≦ 200 nM) |
| C=CC1CCCN(S(C)(=O)=O)c2cc3oc(-c4ccc(F)cc4)c(C(=O)NC)c3cc21 (centres unmarked) [Compound B60] | – | 10 to 100 | – | 10 to 100 | – |
| CCC1CCCN(S(C)(=O)=O)c2cc3oc(-c4ccc(F)cc4)c(C(=O)NC)c3cc21 (centres unmarked) [Compound B63] | – | 10 to 100 | – | 10 to 100 | – |
| CS(=O)(=O)N1CCCCc2cc3c(-c4ncc[nH]4)c(-c4ccc(F)cc4)oc3cc21 [Compound B67] | ††† | ≤ 10 | – | – | EC50 [1, 3]: 5.2 nM; EC50 (HCV NS5B S365A mutant): 200 to 1000 nM |
| C=C1CCCN(S(C)(=O)=O)c2cn3nc(-c4ccc(F)cc4)c(C(=O)NC)c3cc21 [Compound B68] | – | – | – | > 1000 | – |
| CNC(=O)c1c(-c2ccc(F)cc2)nn2cc3c(cc12)C(=O)CCCN3S(C)(=O)=O [Compound B69] | – | – | – | > 1000 | – |
| CNC(=O)c1c(-c2ccc(F)cc2)nn2cc3c(cc12)OCCCN3S(C)(=O)=O [Compound B70] | – | – | – | > 1000 | – |
| CNC(=O)c1c(-c2ccc(F)cc2)oc2cc3c(cc12)C(OC)CCCN3S(C)(=O)=O (centres unmarked) [Compound B71] | – | 10 to 100 | – | 10 to 100 | – |

| Structure (SMILES) | Inhibition of HCV N55B C316Y mutant (HCV NS5B C316Y mutant) | EC50 [1, 2] [nM] | EC50 [1, 4] [nM] | EC50 (HCV 2a) [nM] | other results |
| --- | --- | --- | --- | --- | --- |
| CNC(=O)c1c(-c2ccc(F)cc2)nn2cc3c(cc12)C(C)=CCCN3S(C)(=O)=O [Compound B72] | – | – | – | > 1000 | – |
| CNC(=O)c1c(-c2ccc(F)cc2)nn2cc3c(cc12)C(O)CCCN3S(C)(=O)=O (centres unmarked) [Compound B73] | – | – | – | > 1000 | – |
| CNC(=O)c1c(-c2ccc(F)cc2)nn2cc3c(cc12)C=CCCN3S(C)(=O)=O [Compound B74] | – | – | – | > 1000 | – |
| CNC(=O)c1c(-c2ccc(Oc3ccc(F)cc3)cc2)nn2cc3c(cc12)C(C)CCCN3S(C)(=O)=O (centres unmarked) [Compound B76] | – | – | – | 100 to 1000 | – |
| CNC(=O)c1c(-c2ccc(F)cc2)oc2cc3c(cc12)C(=O)C(C)CCN3S(C)(=O)=O (centres unmarked) [Compound B77] | – | – | – | 100 to 1000 | – |
| CNC(=O)c1c(-c2ccc(F)cc2)oc2cc3c(cc12)C(O)C(C)CCN3S(C)(=O)=O (centres unmarked) [Compound B78] | – | – | – | 100 to 1000 | – |
| CNC(=O)c1c(-c2ccc(F)cc2)oc2cc3c(cc12)C=C(C)CCN3S(C)(=O)=O [Compound B79] | – | – | – | > 1000 | – |
| CNC(=O)c1c(-c2ccc(Oc3cccc(Cl)c3)cc2)nn2cc3c(cc12)C(C)CCCN3S(C)(=O)=O (centres unmarked) [Compound B98] | – | – | – | 100 to 1000 | – |
| CNC(=O)c1c(-c2ccc(Oc3ccc(Cl)cc3)cc2)nn2cc3c(cc12)C(C)CCCN3S(C)(=O)=O (centres unmarked) [Compound B99] | – | – | – | 100 to 1000 | – |
| CNC(=O)c1c(-c2ccc(F)cc2)oc2cc3c(cc12)C(=O)C(C)(C)CCN3S(C)(=O)=O [Compound B100] | – | 10 to 100 | – | 10 to 100 | – |
| C=C1c2cc3c(C(=O)NC)c(-c4ccc(F)cc4)oc3cc2N(S(C)(=O)=O)CCC1(C)C [Compound B101] | – | 10 to 100 | – | 10 to 100 | – |
| CNC(=O)c1c(-c2ccc(Oc3ccc(F)cc3)cc2)oc2cc3c(cc12)[C@H](C)OCCN3S(C)(=O)=O [Compound B118] | ††† | ≤ 10 | – | – | EC50 [1, 3]: 3.1 nM; Inhibition of HCV NS5B S3865A mutant (HCV NS5B S365A mutant): ††† |
| CNC(=O)c1c(-c2ccc(F)cc2)oc2cc3c(cc12)C(C)N(CCO)CCN3S(C)(=O)=O (centres unmarked) [Compound B145] | ††† | ≤ 10 | < 10 | – | EC50 (HCV NS5B S365A mutant): 200 to 1000 nM |
| CNC(=O)c1c(-c2ccc(F)cc2)oc2cc3c(cc12)C(C)N(CCS(C)(=O)=O)CCN3S(C)(=O)=O (centres unmarked) [Compound B156] | ††† | 10 to 100 | 10 to 100 | – | Inhibition of HCV NS5B S3865A mutant (HCV NS5B S365A mutant): ††† |
| CC1c2cc3c(-c4ncc[nH]4)c(-c4ccc(F)cc4)oc3cc2N(S(C)(=O)=O)CCN1C (centres unmarked) [Compound B171] | ††† | ≤ 10 | < 10 | – | EC50 (HCV NS5B S365A mutant): 200 to 1000 nM |
| CC1OCCN(S(C)(=O)=O)c2cc3oc(-c4ccc(F)cc4)c(-c4ncc[nH]4)c3cc21 (centres unmarked) [Compound B197] | ††† | ≤ 10 | < 10 | – | EC50 (HCV NS5B S365A mutant): 200 to 1000 nM |
| CNC(=O)c1c(-c2ccc(Oc3ccc(F)cc3)cc2)oc2cc3c(cc12)[C@H](C)O[C@H](CS(C)(=O)=O)CN3S(C)(=O)=O [Compound B207] | ††† | – | < 10 | – | Inhibition of HCV NS5B S3865A mutant (HCV NS5B S365A mutant): ††† |
